Experimental findings from article PMC9500072, “Topical application of an irreversible small molecule inhibitor of lysyl oxidases ameliorates skin scarring and fibrosis” (Nature Communications, 2022) are described below.

What all share (assay type): biochemical
Experiment [1] deals with T1, recombinant human LOXL3 (Homo sapiens, UniProt P58215).
T1 construct: purchased R&D Systems
T1 sequence (P58215 26-753): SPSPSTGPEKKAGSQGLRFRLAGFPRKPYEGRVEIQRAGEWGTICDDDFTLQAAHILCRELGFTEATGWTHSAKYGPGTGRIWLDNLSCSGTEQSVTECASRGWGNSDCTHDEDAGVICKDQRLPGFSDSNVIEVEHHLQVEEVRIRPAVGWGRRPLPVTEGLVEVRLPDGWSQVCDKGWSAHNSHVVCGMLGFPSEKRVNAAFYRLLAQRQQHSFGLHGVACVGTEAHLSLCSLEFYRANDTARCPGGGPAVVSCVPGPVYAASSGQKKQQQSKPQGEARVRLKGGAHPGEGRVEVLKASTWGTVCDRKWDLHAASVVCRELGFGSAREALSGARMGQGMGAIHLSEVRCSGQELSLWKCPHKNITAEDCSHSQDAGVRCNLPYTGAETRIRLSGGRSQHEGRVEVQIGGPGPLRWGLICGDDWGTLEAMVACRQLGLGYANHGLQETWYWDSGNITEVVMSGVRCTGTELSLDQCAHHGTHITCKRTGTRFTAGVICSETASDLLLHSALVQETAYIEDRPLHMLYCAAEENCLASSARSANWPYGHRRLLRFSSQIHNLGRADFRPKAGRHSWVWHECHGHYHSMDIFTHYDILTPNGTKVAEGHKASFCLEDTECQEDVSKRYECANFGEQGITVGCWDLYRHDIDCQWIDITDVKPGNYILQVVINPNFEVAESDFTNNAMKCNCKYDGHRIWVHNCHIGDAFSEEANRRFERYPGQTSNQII
The experiment is described as follows: Amplex Red oxidation assay, LOXL3 inhibition. The method, then:
(§1) The measurement of the enzymatic activity of all lysyl oxidase family members was based on the detection of hydrogen peroxide with an Amplex-Red oxidation assay, as previously described; miniaturized in 384 well formats, with the appropriate combination of substrate and assay buffer for each individual enzyme. After a 30 min pre-incubation of the enzyme at 37 °C with the test compound (or with different incubation times for the time-dependency assay), one volume of reaction mixture containing 120 μM Amplex Red (AR) (Life Technologies), 1.5 U/mL horseradish peroxidase (HRP) (Sigma-Aldrich) and the specific substrate was added to each sample. The relative fluorescence units (RFU) were then measured every 2.5 min for 30 min at 37 °C, excitation 565 nm and emission 590, on a BMG Clariostar Microplate Reader. All the substrates were used at concentrations corresponding to their Km towards the corresponding enzyme, or with a range of different concentrations for the substrate competition experiments.
(§2) Lysyl oxidases assay buffer contained 1.2 M urea, 50 mM sodium borate buffer, pH 8.2 and 100 µM β-aminoproprionitrile (BAPN, Sigma-Aldrich) was used for low control.
(§3) Recombinant human LOXL1 was expressed and purified from cDNA (GeneArt) and 10 mM putrescine was used as substrate. Recombinant human and mouse LOXL2 (R&D Systems) were challenged with 5 mM putrescine (Sigma-Aldrich) as the substrate. Rat and dog recombinant LOXL2 were amplified and purified in house from HEK-293 clones kindly provided by Dr. Fernando Rodríguez Pascual, Madrid University, and used in the same conditions as for the human form. 2 mM putrescine was used as the substrate for recombinant human LOXL3 (R&D Systems) and LOXL4 (Dr. Fernando Rodríguez Pascual, university of Madrid, Spain) assays.

Experiment [2] deals with T2, Rat Fibroblast LOX (Rattus norvegicus, UniProt P16636).
T2 construct: Fibroblast LOX; endogenous in cells; host or cells: rat fibroblasts
T2 sequence (P16636 163-411): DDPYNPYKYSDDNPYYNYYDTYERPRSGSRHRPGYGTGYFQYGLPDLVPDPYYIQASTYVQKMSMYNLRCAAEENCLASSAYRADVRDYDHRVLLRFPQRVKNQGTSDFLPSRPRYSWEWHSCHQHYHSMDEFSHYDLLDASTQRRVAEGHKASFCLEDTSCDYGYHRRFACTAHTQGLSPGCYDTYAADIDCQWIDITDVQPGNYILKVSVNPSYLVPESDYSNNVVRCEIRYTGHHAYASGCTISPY
The experiment is described as follows: Amine oxidase inhibition profile, rat fibroblast LOX. The method, then: as §1, §2
Supplem entary Materi als:
Supplementary Table S1: Amine oxidase inhibition profile of PXS -4787, PXS-6302 and
Supplementary Table S2: Perm eability profile of PXS -6302.

Experiment [3] has as its target T3, Human recombinant LOXL2 (Homo sapiens, UniProt Q9Y4K0).
T3 construct: purchased R&D Systems
T3 sequence (Q9Y4K0 26-774): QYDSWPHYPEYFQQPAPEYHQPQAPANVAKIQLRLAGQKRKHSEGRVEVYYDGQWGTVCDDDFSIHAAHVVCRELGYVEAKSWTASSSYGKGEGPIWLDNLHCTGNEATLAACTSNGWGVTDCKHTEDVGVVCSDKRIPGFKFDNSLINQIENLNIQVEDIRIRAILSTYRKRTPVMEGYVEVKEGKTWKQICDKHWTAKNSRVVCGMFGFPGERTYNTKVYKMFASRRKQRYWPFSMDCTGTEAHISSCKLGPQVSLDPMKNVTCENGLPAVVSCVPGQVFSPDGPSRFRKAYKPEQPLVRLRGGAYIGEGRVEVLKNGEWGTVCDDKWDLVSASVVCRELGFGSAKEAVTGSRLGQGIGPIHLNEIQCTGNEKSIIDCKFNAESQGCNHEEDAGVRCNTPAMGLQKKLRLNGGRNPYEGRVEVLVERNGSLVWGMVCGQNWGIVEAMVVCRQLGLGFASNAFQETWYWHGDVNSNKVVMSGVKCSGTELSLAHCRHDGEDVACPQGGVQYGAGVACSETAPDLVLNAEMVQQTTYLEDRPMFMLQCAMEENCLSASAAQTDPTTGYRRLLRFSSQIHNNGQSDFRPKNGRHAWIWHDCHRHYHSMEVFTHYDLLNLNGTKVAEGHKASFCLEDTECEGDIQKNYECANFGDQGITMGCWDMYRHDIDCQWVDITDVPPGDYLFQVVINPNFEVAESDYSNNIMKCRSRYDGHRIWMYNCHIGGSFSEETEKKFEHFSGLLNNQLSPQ
The experiment is described as follows: Amplex Red oxidation assay, LOXL2 inhibition. The method, then:
For compound oxidation assays, the amount of hydrogen peroxide generated at a single concentration (30 µM) of compound relative to DMSO was measured.
as §1, §2, §3

The mark [4] stands for this setting: 30 min pre-incubation, read-out: rh LOXL3 IC50.
The mark [5] stands for this setting: 30 min pre-incubation, read-out: LOXL2 IC50.
Where [6] appears, read: log conc -4.5229, read-out: Fig 2A inhibition (mean).
The mark [7] stands for this setting: log conc -5, read-out: Fig 2A inhibition (mean).
Where [8] appears, read: log conc -5.4771, read-out: Fig 2A inhibition (mean).
Where [9] appears, read: log conc -5.9542, read-out: Fig 2A inhibition (mean).
The mark [10] stands for this setting: log conc -6.4313, read-out: Fig 2A inhibition (mean).
The mark [11] stands for this setting: log conc -6.9083, read-out: Fig 2A inhibition (mean).
The mark [12] stands for this setting: log conc -7.3851, read-out: Fig 2A inhibition (mean).
Where [13] appears, read: log conc -7.8633, read-out: Fig 2A inhibition (mean).
The mark [14] stands for this setting: log conc -8.3372, read-out: Fig 2A inhibition (mean).
Setting [15] is: log conc -8.8239, read-out: Fig 2A inhibition (mean).
[16] abbreviates: log conc -9.301, read-out: Fig 2A inhibition (mean).
Setting [17] is: read-out: Human Recombinant LOXL3 pIC50±SD (converted).

Broadly, the inhibition is the drop in the measured response relative to a control, in per cent.

Structures are written as SMILES. Read-outs that look alike come from different tables or passages of the source.

As for `N#CCCN` [BAPN, β-aminoproprionitrile, reference compound], in experiment [1], the “Human Recombinant LOXL3 pIC50±SD” value amounted to 6.3 ± 0.1. Also, the IC50 in experiment [1] (setting [4]) was 510 nM; in experiment [2] it was 2120 nM; in experiment [3] (setting [5]), 390 nM. The “Rat Fibroblast LOX pIC50±SD” value in experiment [2] amounted to 5.7 ± 0.1. Besides, in experiment [3], the “Human Recombinant LOXL2 pIC50±SD” value is recorded as 6.4 ± 0.1.

Take `NC/C=C(\F)CS(=O)(=O)c1ccccc1` [PXS-4787]: the IC50 in experiment [1] (setting [4]) is 1420 nM; in experiment [1] (setting [17]), 1260 nM; in experiment [2], 4570 nM; in experiment [3] (setting [5]), 600 nM; in experiment [3] (read-out: Human Recombinant LOXL2 pIC50±SD (converted)), 631 nM. In addition, the inhibition at 30 µM in experiment [1] (setting [6]) turned out to be 99.7%; in experiment [3] (setting [6]), 98.4%. The inhibition at 10 µM came out at 94.8% in experiment [1] (setting [7]) and 95.6% in experiment [3] (setting [7]). The figures for the inhibition at 3.333 µM in experiment [1] (setting [8]) and in experiment [3] (setting [8]) were 75.7% and 87.6%, respectively. For the same molecule, the results for the inhibition at 1.111 µM in experiment [1] (setting [9]) and in experiment [3] (setting [9]) were 41.8% and 67.7%, respectively. Besides, the inhibition at 0.3704 µM is 18.9% in experiment [1] (setting [10]) and 40.3% in experiment [3] (setting [10]). Also, the inhibition at 0.1235 µM in experiment [1] (setting [11]) came to 6.04%; in experiment [3] (setting [11]), 18.8%. For the same molecule, the values for the inhibition at 0.0412 µM in experiment [1] (setting [12]) and in experiment [3] (setting [12]) were -0.564% and 9.34%, respectively. Moreover, the inhibition at 0.0137 µM amounted to 1.57% in experiment [1] (setting [13]) and 2.56% in experiment [3] (setting [13]). Moreover, the inhibition at 0.0046 µM in experiment [1] (setting [14]) is -2.27%; in experiment [3] (setting [14]), 0.119%. The results for the inhibition at […] in experiment [1] (setting [15]) and in experiment [3] (setting [15]) were -2.78% and -0.297%, respectively. The inhibition at 0.0005 µM in experiment [1] (setting [16]) is -0.598%; in experiment [3] (setting [16]) it was -1.19%.

`NC/C=C(\F)C(F)(F)S(=O)(=O)c1ccccc1` [PXS-6302]: the IC50 is 1540 nM in experiment [1] (setting [4]), 1580 nM in experiment [1] (setting [17]), 8570 nM in experiment [2] and 430 nM in experiment [3] (setting [5]). In experiment [3], the “Human Recombinant LOXL2 pIC50±SD” value is 6.4 ± 0.2.
